# Assay results taken from US8796285B2, “Pyrazolo [1,5-a]-pyrimidones derivatives and pharmaceutical compositions and uses thereof” (Hebei Medical University, priority 2009, dated 2014).
# Where two headings read alike, the source gives them in different places.
# How the values were obtained:
# [1] = molecular target: KCNQ4 potassium ion channel (Homo sapiens, UniProt P56696); assay: High throughput atomic absorption Rb+ efflux testing, CHO cell of KCNQ4 channel; type: cell-based; conditions: for EC50: CHO cell of KCNQ4 channel
# Excerpt: Atomic absorption Rb^+ efflux testing is a fast and safe selection method for high throughput potassium channel moderator, and is characterized in that the activity of the ion channel and the control effect of the opener are directly reflected. Rb and K have similar atomic size, and potassium ion channel is permeable to Rb^+. By testing concentration of the Rb^+ efflux, a status of the potassium channel, which is an open status or a close status, can be determined. Rb has specific absorption at 780 nm, and Rb^+ concentration can be determined by atomic absorption spectroscopy. Accordingly, analysis method of atomic absorption spectroscopy can be used to select the opener/inhibitor of potassium channel through high throughput of Rb^+ efflux.
# Stable cell transfer of CHO cell of KCNQ4 channel at log phase and inoculate in 96-well culture plate at a density of 2×10^4 unit/well. Each concentration has a triplicate-hole setting, and a control setting with solvent of corresponding concentration. Allow growth against the well-wall overnight, then discard the culture medium, add 200 μl loading buffer which contains RbCl, and culture in 5% CO2 at 37° C. for 3 hours. Then remove the loading buffer and wash with wash buffer for 3 times. Screen for the KCNQ opener, dilute testing compound with depolarization buffer, add 200 μl of the above solvent into the cell and allow reaction for 10 minutes. Incubate for 10 minutes, then carefully draw 200 μl supernatant to another 96-well culture plate, use ICR8000 atomic absorption spectrometry to determine the Rb^+ atomic absorption at 780 nm. Based on the equation Fsupern=(Rb_supern/cpd/Rb_supern/d)×100, calculate the corresponding rate of efflux.
# KCNQ2/3 = molecular target: T1, KCNQ2/3 (Homo sapiens, UniProt O43525+O43526); assay: High throughput atomic absorption Rb+ efflux testing, KCNQ2/3; type: cell-based; conditions: Rb+ efflux by atomic absorption
# T1 construct: expressed in transfected cells
# Male SD rats = assay: Formalin-induced pain model; type: in vivo; conditions: rat
# Procedure: Pharmaceutical composition used: the compound number 42 for the testing group, no medication for the positive control group, which is a blank control model.
# Testing method: Male SD rats are randomly divided into control group, ipsilateral treatment group (treatment on the same side) and contralateral treatment group (treatment on the opposite side). After 30 minutes from administration of pharmaceutical compound, administer 20 μl of 20 g/L formalin by subcutaneous injection in foot bottom of back paw on the same side or the opposite side of pharmaceutical compound administration, an occurrence of typical lateral swinging and shaking of rat's tail is deemed as successful in preparing induced-pain model, in the next 60 minutes, observe the rat's licking and biting behavior towards the formalin's injection paw at each 5-min interval.
# [2] = Rb+ efflux by atomic absorption, read-out: KCNQ4
Structure (SMILES),"EC50 [1, 2]",EC50 (KCNQ2/3),other results
"COc1ccc(-c2c(C(F)(F)F)nn3c(=O)cc(C(F)(F)F)[nH]c23)cc1OC [Compound 2, 3-(3,4-dimethoxyphenyl)-2,5-bis(trifluoromethyl)pyrazolo[1,5-a]pyrimidin-7(4H)-one]",12.1 ± 0.23 µM,5.65 ± 3.13 µM,
O=C(Cc1ccc(C(F)(F)F)cc1)NCc1cc(=O)n2nc(C(F)(F)F)c(-c3ccccc3)c2[nH]1 [Compound 35],44.5 ± 5.28 µM,138 ± 9.28 µM,
"O=c1cc(C(F)(F)F)[nH]c2c(-c3cccc4ccccc34)c(C(F)(F)F)nn12 [Compound 38, 2,5-bis(trifluoromethyl)-3-(naphthalen-1-yl)pyrazolo[1,5-a]pyrimidin-7(4H)-one]",4.82 ± 3.45 µM,9.29 ± 26.3 µM,
"COc1ccc(-c2cc(=O)n3nc(C(F)(F)F)c(-c4cccc5ccccc45)c3[nH]2)cc1 [Compound 47, 5-(4-methoxyphenyl)-3-(naphthalen-1-yl)-2-trifluoromethylpyrazolo[1,5-a]pyrimidin-7(4H)-one]",46.2 ± 2.34 µM,89.2 ± 24.2 µM,
O=c1cc(CN2CCNCC2)[nH]c2c(-c3cccs3)c(C(F)(F)F)nn12 [Compound 61],33.3 ± 2.12 µM,77.7 ± 21.3 µM,
"CCOC(=O)c1c(-c2ccc(Cl)cc2)nn2c(=O)cc(C(F)(F)F)[nH]c12 [Compound 73, ethyl 7-oxo-2-(4-chlorophenyl)-5-(trifluoromethyl)-4,7-dihydropyrazolo[1,5-a]pyrimidine-3-carboxylate]",60.6 ± 3.28 µM,135 ± 32.2 µM,
"O=c1cc(C(F)(F)F)[nH]c2c(-c3c[nH]c4ccccc34)c(-c3ccc(Cl)cc3)nn12 [Compound 77, 2-(4-chlorophenyl)-3-(1H-indol-3-yl)-5-trifluoromethylpyrazolo[1,5-a]pyrimidin-7(4H)-one]",82.3 ± 19.3 µM,32.2 ± 9.32 µM,
"O=C(OCc1cc(=O)n2nc(C(F)(F)F)c(N3CCNCC3)c2[nH]1)C(F)(F)F [Compound 86, (2-trifluoromethyl-3-piperazinyl-7-oxo-4,7-dihydropyrazolo[1,5-a]pyrimidin-5-yl)methyl-2,2,2-trifluoroacetate]",50.1 ± 1.34 µM,98.3 ± 65.2 µM,
"O=c1cc(CCl)[nH]c2c(-c3cccs3)c(C(F)(F)F)nn12 [Compound 96, 5-chloromethyl-3-(thiophen-2-yl)-2-trifluoromethylpyrazolo[1,5-a]pyrimidin-7(4H)-one]",5.41 ± 2.29 µM,,
"O=c1cc(CCl)[nH]c2c(-c3cccs3)c(Cl)nn12 [Compound 108, 2-chloro-3-(thiophen-2-yl)-5-chloromethylpyrazolo[1,5-a]pyrimidin-7(4H)-one]",91.2 ± 33.2 µM,56.8 ± 19.4 µM,
"O=C(NCc1cc(=O)n2nc(Cl)c(-c3ccc4ccccc4c3)c2[nH]1)C(F)(F)F [Compound 116, N-((2-chloro-3-(naphthalen-2-yl)-7-oxo-4,7-dihydropyrazolo[1,5-a]pyrimidin-5-yl)methyl)-2,2,2-trifluoroacetamide]",43.2 ± 13.7 µM,210 ± 9.8 µM,

# Continued, in another order:
"EC50 [1, 2]",EC50 (KCNQ2/3),Structure (SMILES),other results
67.8 ± 2.67 µM,100 ± 13.3 µM,CCOC(=O)c1c(C(F)(F)F)nn2c(=O)cc(-c3ccccc3)[nH]c12 [Compound 5],
24.5 ± 4.67 µM,4.76 ± 1.35 µM,"O=c1cc(-c2ccc(Cl)cc2)[nH]c2c(-c3ccc(F)cc3)c(C(F)(F)F)nn12 [Compound 8, 2-trifluoromethyl-3-(4-fluorophenyl)-5-(4-chlorophenyl)-pyrazole[1,5-a]pyrimidin-7(4H)-one]",
120 ± 3.23 µM,78.7 ± 12.3 µM,"O=c1cc(-c2cc(F)c(Cl)nc2Cl)[nH]c2c(-c3ccc(F)cc3)c(C(F)(F)F)nn12 [Compound 18, 5-(2,6-dichloro-5-fluoropyrindin-3-yl)-3-(4-fluorophenyl)-2-(trifluoromethyl)pyrazolo[1,5-a]pyrimidin-7(4H)-one]",
62.1 ± 1.12 µM,40.2 ± 2.34 µM,"O=c1cc(-c2ccccc2)[nH]c2c(-c3ccccc3)c(C(F)(F)F)nn12 [Compound 19, 3,5-diphenyl-2-(trifluoromethyl)pyrazolo[1,5-a]pyrimidin-7(4H)-one]",
5.87 ± 2.67 µM,1.28 ± 1.16 µM,"O=c1cc(C(F)(F)F)[nH]c2c(-c3ccccc3)c(C(F)(F)F)nn12 [Compound 20, 2,5 bis(trifluoromethyl)-3-phenylpyrazolo [1,5-a]pyrimidin-7(4H)-one]",
0.15 ± 0.09 µM,1.28 ± 0.12 µM,O=c1cc(-c2cc(F)c(Cl)nc2Cl)[nH]c2c(-c3ccc(F)cc3)c(C(F)(F)F)nn12 [Compound 22],
10.3 ± 0.43 µM,22.1 ± 1.23 µM,COc1ccc(-c2c(C(F)(F)F)nn3c(=O)cc(-c4cc(F)c(Cl)nc4Cl)[nH]c23)cc1OC [Compound 23],
35 ± 1.21 µM,85.3 ± 3.45 µM,"O=c1cc(CN2CCCCC2)[nH]c2c(-c3ccccc3)c(C(F)(F)F)nn12 [Compound 25, 5-(piperidin-1-ylmethyl)-3-phenyl-2-trifluoromethylpyrazolo[1,5-a]pyrimidin-7(4H)-one]",
12.2 ± 0.82 µM,1.26 ± 0.68 µM,"O=c1cc(-c2cccc([N+](=O)[O-])c2)[nH]c2c(-c3ccccc3)c(C(F)(F)F)nn12 [Compound 30, 5-(3-nitrophenyl)-3-phenyl-2-trifluoromethylpyrazolo[1,5-a]pyrimidin-7(4H)-one]",
21.7 ± 9.72 µM,5.21 ± 3.21 µM,"O=c1cc(CCl)[nH]c2c(-c3cccc4ccccc34)c(C(F)(F)F)nn12 [Compound 39, 5-chloromethyl-3-(naphthalen-1-yl)-2-trifluoromethylpyrazolo[1,5-a]pyrimidin-7(4H)-one]",
,0.53 ± 0.28 µM,O=c1cc(-c2cc(F)c(Cl)nc2Cl)[nH]c2c(-c3cccc4ccccc34)c(C(F)(F)F)nn12 [Compound 42],"accumulated time of licking/biting back paw, first phase (Male SD rats; 0-10 min after formalin injection, treatment vs control group, p>0.05): no significant difference; accumulated time of licking/biting back paw, second phase (Male SD rats; 10-60 min after formalin, ipsilateral treatment group vs control group, p<0.05): decrease in accumulated time of licking/biting back paw; activating effect on the CHO cell of the KCNQ4 potassium ion channel ([1]; Rb+ efflux at 0.03, 0.1, 0.6, 1, 3 and 10 μM, FIG. 4): dose-dependent activating effect; EC50 ([1]; Rb+ efflux, 0.03-10 μM, FIG. 4, read-out: EC50): 0.96 ± 0.51 µM"
1.14 ± 0.34 µM,5.32 ± 2.23 µM,O=c1cc(-c2cc(F)c(Cl)nc2Cl)[nH]c2c(-c3cccs3)c(C(F)(F)F)nn12 [Compound 60],
0.54 ± 0.23 µM,0.28 ± 0.32 µM,"O=c1cc(-c2cc(F)c(Cl)nc2Cl)[nH]c2c(-c3cccs3)c(C(Cl)(Cl)Cl)nn12 [Compound 94, 5-(2,6-dichloro-5-fluoropyrido)-3-(thiophen-2-yl)-2-trichloromethyl pyrazolo[1,5-a]pyrimidin-7(4H)-one]",
18.4 ± 1.34 µM,54.5 ± 32.1 µM,"O=c1cc(-c2cc(F)c(F)cc2F)[nH]c2c(-c3ccccc3)c(C(Cl)(Cl)Cl)nn12 [Compound 99, 3-phenyl-2-trichloromethyl-5-(2,4,5-trifluorophenyl)pyrazolo[1,5-a]pyrimidin-7(4H)-one]",
